Laboratory results: the NIST ThermoML archive (doi:10.1016/j.jct.2006.11.003)
Numbers after ± are expanded uncertainties.

Legend:
[1] = 101 kPa, Liquid
[2] = refractive index (Na D-line) (dimensionless); details: 298.15 K; 101.33 kPa; Liquid; Standard Abbe refractometry
[3] = xn = mol fraction of the nth substance listed; details: 101 kPa, Liquid, x2 = 0

| SMILES | mass density ([1]; 293.15 K) | mass density ([1]; 298.15 K) | mass density ([1]; 303.15 K) | mass density ([1]; 313.15 K) | mass density ([1]; 323.15 K) | mass density ([1]; 333.15 K) | mass density ([1]; 343.15 K) | mass density ([1]; 353.15 K) | refractive index [2] | mass density ([3]; 293.15 K) | mass density ([3]; 303.15 K) | mass density ([3]; 313.15 K) | mass density ([3]; 323.15 K) | mass density ([3]; 333.15 K) | mass density ([3]; 343.15 K) | mass density ([3]; 353.15 K) |
| --- | --- | --- | --- | --- | --- | --- | --- | --- | --- | --- | --- | --- | --- | --- | --- | --- |
| Cc1ccccc1C [1,2-dimethylbenzene] | 879.84 ± 0.64 kg/m3 | 875.73 ± 0.65 kg/m3 | 871.48 ± 0.66 kg/m3 | 863.03 ± 0.69 kg/m3 | 854.51 ± 0.72 kg/m3 | 845.91 ± 0.74 kg/m3 | 837.23 ± 0.77 kg/m3 | 828.47 ± 0.8 kg/m3 | 1.5057 ± 0.0007 | – | – | – | – | – | – | – |
| Cc1cccc(C)c1 [1,3-dimethylbenzene] | 864.31 ± 1.3 kg/m3 | 859.83 ± 1.3 kg/m3 | 855.64 ± 1.3 kg/m3 | 846.9 ± 1.3 kg/m3 | 838.09 ± 1.3 kg/m3 | 829.22 ± 1.3 kg/m3 | 820.29 ± 1.4 kg/m3 | 811.29 ± 1.4 kg/m3 | 1.4973 ± 0.0008 | – | – | – | – | – | – | – |
| Cc1ccc(C)cc1 [1,4-dimethylbenzene] | 860.95 ± 0.83 kg/m3 | 856.58 ± 0.84 kg/m3 | 852.3 ± 0.85 kg/m3 | – | 834.76 ± 0.9 kg/m3 | 825.86 ± 1.2 kg/m3 | 816.87 ± 0.95 kg/m3 | 807.81 ± 0.98 kg/m3 | 1.4958 ± 0.0008 | – | – | – | – | – | – | – |
| CN1CCCC1=O [N-methylpyrrolidone] | 1032.66 ± 0.48 kg/m3 | 1028.25 ± 0.46 kg/m3 | 1023.42 ± 0.44 kg/m3 | 1014.27 ± 0.4 kg/m3 | 1005.62 ± 0.37 kg/m3 | 996.28 ± 0.36 kg/m3 | 987.39 ± 0.4 kg/m3 | 978.62 ± 0.43 kg/m3 | 1.4677 ± 0.0007 | – | – | – | – | – | – | – |
| CN1CCCC1=O [N-methylpyrrolidone] + Cc1ccc(C)cc1 | – | – | – | – | – | – | – | – | – | 1032.66 ± 0.48 kg/m3 | 1023.42 ± 0.44 kg/m3 | 1014.27 ± 0.4 kg/m3 | 1005.62 ± 0.37 kg/m3 | 996.28 ± 0.36 kg/m3 | 987.39 ± 0.4 kg/m3 | 978.62 ± 0.43 kg/m3 |
| CN1CCCC1=O [N-methylpyrrolidone] + Cc1cccc(C)c1 | – | – | – | – | – | – | – | – | – | 1032.66 ± 0.48 kg/m3 | 1023.42 ± 0.44 kg/m3 | 1014.27 ± 0.4 kg/m3 | 1005.62 ± 0.37 kg/m3 | 996.28 ± 0.36 kg/m3 | 987.39 ± 0.4 kg/m3 | 978.62 ± 0.43 kg/m3 |
| CN1CCCC1=O [N-methylpyrrolidone] + Cc1ccccc1C | – | – | – | – | – | – | – | – | – | 1032.66 ± 0.48 kg/m3 | 1023.42 ± 0.44 kg/m3 | 1014.27 ± 0.4 kg/m3 | 1005.62 ± 0.37 kg/m3 | 996.28 ± 0.36 kg/m3 | 987.39 ± 0.4 kg/m3 | 978.62 ± 0.43 kg/m3 |
